Assay results published in US20240238278A1, “Pharmaceutical Composition for Preventing or Treating Fibrosis” (Daewoong Pharmaceutical Co., Ltd., priority 2021, published 2024).

Key:
[1] = tested on: animal model of pulmonary fibrosis; test: Lung function evaluation (SpO2) in BLM animal model; type: in vivo, mouse; conditions: BLM mice, PO, day 21, first component 10 mg/kg, NIN 60 mg/kg, PID 200 mg/kg; for SpO2 Differance / SpO2 Rate of increase: vs vehicle
Description: (§1) 70-100 uL of BLM solution (bleomycin 1-3 mg/kg) was administered to a lung of the acclimatized experimental animals using a catheter for 5 days or more. In accordance with the purpose of the test, the test drug was administered 7 days after BLM administration, and the drug was orally administered for 2 weeks until the 21st day of BLM administration.
This lung function evaluation is the most direct and important evaluation index that has the greatest influence on the symptoms and quality of life of patients with pulmonary fibrosis, and is an experiment that can most directly show the effect of improving lung function in an animal model of pulmonary fibrosis by measuring the oxygen concentration in the body.
On the 21st day, it was measured with a SpO2 measuring device (Berry, Veterinary Pulse Oximeter) via the abdominal side of the mouse, and the results are shown in Table 5 and FIG. 3.

[2] = tested on: animal model of pulmonary fibrosis; test: Inflammation cell count analysis in BALF; type: in vivo; conditions: BLM mice, PO, day 21; first component 10 mg/kg, NIN 60 mg/kg, PID 200 mg/kg
Description: as §1
At the sacrifice on the 21st day of administration, BALF (Bronchoalveolar lavage fluid) cells obtained through airway washing of mice were diluted with 1.05×PBS and attached to a slide, and then the slide was immersed and removed for 30 seconds in the order of 1, 2, 3 diff quick stain solution, and stained. It was counted based on 500 cells. Macrophages are the largest in size, mononuclear, and stained blue. Neutrophils and eosinophils form polynuclear cells, but eosinophils are stained red with eosin and distinguished from neutrophils. Lymphocytes have very less cytoplasm and are small in size as monocytes.

[3] = tested on: animal model of pulmonary fibrosis; test: Histopathology (Ashcroft score) analysis, Fibrotic Index; type: in vivo, mouse; conditions: BLM mice, PO, day 21; first component 10 mg/kg, PID 200 mg/kg
Description: as §1
The degree of fibrosis and inflammation of the lung tissue were visually observed through a microscope, and the degree of fibrosis of lung tissue was measured with a Fibrotic Index according to normalized criteria. The higher the Fibrotic Index value, the more severe the degree and symptom of fibrosis. It is interpreted that as the value is lower, the symptom is alleviated.
On the 21st day, lung tissue was separated and stained using H&E and MT stain, and observed under a microscope at 200× magnification. The observed results were scored by Ashcroft (Hubner et al., 2008). The fibrotic index was calculated by dividing the sum of the adjusted Ashcroft field scores by the number of fields tested, and shown in Table 7 and FIG. 4.

DHLF cell line = test: Non-clinical anti-fibrotic efficacy: Western blotting of TGF-β treated DHLF cell line; type: cell-based; conditions: TGF-β 10 ng/ml, 72 hours
Description: 10 mM of the first component was diluted with DMSO so as to be to 100 uM. It was diluted with DMSO so as to be 10, 3, 1 uM, and 10 mM of the second component (NIN) was diluted with DMSO to be 50 nM.
A DHLF cell line (FGM™-2 Bullet Kit™, 10% FBS), which is a lung fibrosis cell line, was prepared, and cultured in a T75 Easy Flask Filter at 37° C. and 5% CO2 using FBM medium. The cultured DHLF cell line was treated with 10 ng/mL of TGF-β and the test drug alone or in combination, cultured for 72 hours, then the media was removed, the protein was extracted, and the extracted protein was quantified using the BCA Protein Assay Kit. Based on the quantitative value of each extracted protein, 10 to 20 ug of protein was subjected to Western blotting. The protein after running was transferred to the PVDF membrane. After TBS-T washing 3 times, each PVDF membrane was treated with 1 mL of ECL solution, and then the protein expression level was measured using an AI680 imager. Each band value was calculated as a numerical value normalized compared to β-actin through ImageJ, and is shown in Tables 2 and 3 and FIGS. 1 and 2 below.

[4] = Measurement of change in body weight in BLM animal model; type: in vivo, mouse; design: unit not given here; conditions: BLM mice, first component 10 mg/kg, NIN 60 mg/kg, PID 200 mg/kg
Description: as §1
The body weight was measured once every 0, 7, 14, 17, and 21 days for 3 weeks, and from the 14th day when the drug effect began to be noticeable after the administration, it was measured every 3 days.

[5] = tested on: animal model of pulmonary fibrosis; test: Measurement of total collagen content in lung (INSOLUBLE Collagen Assay); type: in vivo, mouse; conditions: BLM mice, PO, day 21, n 9; first component 10 mg/kg, NIN 60 mg/kg, PID 200 mg/kg
Description: as §1
In this experimental example, analysis was performed using INSOLUBLE Collagen Assay (Biocolor, S2000). After sacrifice on the 21st day, the cryopreserved lung tissue was pulverized by adding 100 uL of Fragmentation Reagent, and then, 100 uL of 37% HCl was added and incubated at 65° C. for 3 hours. The contents of the tube were shaken at 30 minute intervals to aid tissue disintegration. After centrifugation, the concentration was adjusted to 100 μL and collagen staining was proceeded to prepare a sample. Absorbance was measured at 560 nm.

[6] = Pharmacokinetic test after single oral administration in ICR mice; type: in vivo; conditions: mouse, blood, ICR mice (male), 10 mg/kg
Description: The pharmacokinetic parameters were calculated using Excel® and WinNonlin6.1 software for the blood drug concentration according to the change over time obtained through LC-MS/MS, and changes in the blood concentration of the first component are shown in Table 11 and FIG. 9.

[7] = Table 2, first component 10 ug/ml alone
[8] = Table 3, first component 5 ug/ml alone

Row | SMILES | SpO2 Average value [1] | SpO2 Differance [1] | SpO2 Rate of increase [1] | Eosinophil count in BALF [2] | Lymphocyte count in BALF [2] | Macrophage count in BALF [2] | Neutrophil count in BALF [2] | total cell in BALF [2] | Fibrotic Index (±SEM) [3] | change in body weight ([4]; Day 0) | change in body weight ([4]; Day 7) | change in body weight ([4]; Day 14) | change in body weight ([4]; Day 17) | change in body weight ([4]; Day 21) | total collagen content in lung (hydroxyproline value, ratio compared with normal group) [5] | further results
1 | O[C@H]1CCCN[C@@H]1CCCn1cnc2c(Cl)c(Cl)ccc21 [First component] | 79.1 | 3.1 | 4% | 0 | 7 | 60 | 17 | 84 10^4 | 4.6 (±0.6) | 0.0 | −10.1 | −22.7 | −22.2 | −20.5 | 228 | COL1A1 Relative value (based on control) (DHLF cell line; [7]): 3.26; SMA-α Relative value (based on control) (DHLF cell line; [7]): 1.66; COL1A1 Relative value (based on control) (DHLF cell line; [8]): 3.84; SMA-α Relative value (based on control) (DHLF cell line; [8]): 3.53; AUC(0-inf) [6]: 1190 ng·h/mL; AUC(0-t) [6]: 1070 ± 210 ng·h/mL; Cmax [6]: 263 ± 32 ng/mL; Tmax [6]: 2.67 ± 1.15 h; half-life [6]: 2.5 ± 2.48 h
2 | Cc1ccc(=O)n(-c2ccccc2)c1 [Second component (PID), Pirfenidone] | 81.7 | 5.7 | 7% | 0 | 6 | 55 | 12 | 74 10^4 | 3.7 (±0.7) | 0.0 | −10.2 | −22.7 | −18.1 | −16.5 | 156 | SpO2 Rate of increase ([1]; listed as PID): 7%
